Measured values: patent US20230339927A1, “ATR INHIBITORS AND USES THEREOF” (ANTENGENE DISCOVERY LIMITED, priority 2020, published 2023)

Assays:
[1] = test system: LoVo (CCL-229) human colorectal cancer cells; assay: Tumor cell anti-proliferation assay (CTG assay); type: cell-based; conditions: 96 h incubation, CellTiter-Glo, IC50 (Y=50%)
Excerpt: Assay 2: Tumor Cell Anti-proliferation Assay (CTG Assay)
Human colorectal cancer cells HT-29 (HTB-38) and LoVo (CCL-229) were selected for the CTG assay, the two cell lines were originally obtained from the American Type Culture Collection (ATCC). Add FBS and appropriate additives into base medium to prepare complete medium, then briefly rinse the cell layer with 0.25% (w/v) Trypsin-0.038% (w/v) EDTA solution to remove all traces of serum that contains trypsin inhibitor, after that, add appropriate volume of Trypsin-EDTA solution to flask and observe cells under an inverted microscope until cell layer is dispersed, at last, add appropriate volume of complete growth medium and aspirate cells by gently pipetting. Collect and count numbers with Vi-cell XR and adjust cell density, seed cells into 96-well opaque-walled clear bottom tissue-culture treated plates in the CO2 incubator for 20-24 hours. All the test compounds will be at 10 mM in DMSO. Compounds are then added to the cell media in 3-fold serial dilutions, the final DMSO concentration is 0.5%. Incubate plates for 96 h at 5% CO2, 37° C. Before the measurement, transfer the appropriate volume of CellTiter-Glo Buffer into the amber bottle containing CellTiter-Glo substrate to reconstitute the lyophilized enzyme/substrate mixture, mix gently, this forms the CellTiter-Glo Reagent (Promega Cat. No. G7573). Equilibrate the plate and its contents to room temperature for approximately 30 minutes, then add 100 µL of CellTiter-Glo Reagent to the assay plate, mix contents for 2 minutes on an orbital shaker to induce cell lysis, incubate at room temperature for 10 minutes to stabilize luminescent signal, at last paste the clear bottom with white back seal and record luminescence with Enspire. IC50 and GI50 values were calculated with XLFit curve fitting software using 4 Parameter Logistic Model Y=Bottom + (Top-Bottom)/(1+(IC50/X)^HillSlope).
The following Table 3 provides the IC50 (Y=50%) values for exemplary compounds of Formula (I).

ATR kinase = target: T1, ATR kinase (Homo sapiens, UniProt Q13535); assay: ATR inhibition assay (mobility shift assay, FAM-RAD17 phosphorylation); type: biochemical; conditions: substrate FAM-RAD17, ATR kinase (Eurofins)
T1 construct: purchased Eurofins 14-953
Procedure: Assay 1: ATR Inhibition Assay
The assay was developed and conducted at Chempartner. All the test compounds were dissolved in 100% DMSO at concentration of 20 mM, then prepare compounds and conducted the assay as follows:
1) Transfer 80 µl20 mM compound to 40 µl of 100% DMSO in a 96-well plate.
2) Serially dilute the compound by transferring 20 µl to 60 µl of 100% DMSO in the next well and so forth for a total of 10 concentrations.
3) Add 100 µl of 100% DMSO to two empty wells for no compound control and no enzyme control in the same 96-well plate. Mark the plate as source plate.
4) Transfer 40 µl of compound from source plate to a new 384-well plate as the intermediate plate.
5) Transfer 60 nl compounds to assay plate by Echo.
No. D14JP007N) into Kinase base buffer (50 mM HEPES, pH 7.5; 0.0015% Brij-35; 0.01% Triton) to prepare 2x enzyme solution, then add 10 µl of 2x enzyme solution to each well of the 384-well assay plate, incubate at room temperature for 10 min.
8) Incubate at 28° C. for specified period of time. Add 40 µl of stop buffer (100 mM HEPES, pH 7.5; 0.015% Brij-35; 0.2% Coating Reagent #3; 50 mM EDTA) to stop reaction.
9) Collect data on Caliper. Convert conversion values to inhibition values.
wherein “max” stands for DMSO control; “min” stands for low control.
Fit the data in XLFit excel add-in version 5.4.0.8 to obtain IC50 values. Equation used is: […]
wherein X means concentration in a format not transformed to logarithms.

T1 sequence (Q13535 whole entry): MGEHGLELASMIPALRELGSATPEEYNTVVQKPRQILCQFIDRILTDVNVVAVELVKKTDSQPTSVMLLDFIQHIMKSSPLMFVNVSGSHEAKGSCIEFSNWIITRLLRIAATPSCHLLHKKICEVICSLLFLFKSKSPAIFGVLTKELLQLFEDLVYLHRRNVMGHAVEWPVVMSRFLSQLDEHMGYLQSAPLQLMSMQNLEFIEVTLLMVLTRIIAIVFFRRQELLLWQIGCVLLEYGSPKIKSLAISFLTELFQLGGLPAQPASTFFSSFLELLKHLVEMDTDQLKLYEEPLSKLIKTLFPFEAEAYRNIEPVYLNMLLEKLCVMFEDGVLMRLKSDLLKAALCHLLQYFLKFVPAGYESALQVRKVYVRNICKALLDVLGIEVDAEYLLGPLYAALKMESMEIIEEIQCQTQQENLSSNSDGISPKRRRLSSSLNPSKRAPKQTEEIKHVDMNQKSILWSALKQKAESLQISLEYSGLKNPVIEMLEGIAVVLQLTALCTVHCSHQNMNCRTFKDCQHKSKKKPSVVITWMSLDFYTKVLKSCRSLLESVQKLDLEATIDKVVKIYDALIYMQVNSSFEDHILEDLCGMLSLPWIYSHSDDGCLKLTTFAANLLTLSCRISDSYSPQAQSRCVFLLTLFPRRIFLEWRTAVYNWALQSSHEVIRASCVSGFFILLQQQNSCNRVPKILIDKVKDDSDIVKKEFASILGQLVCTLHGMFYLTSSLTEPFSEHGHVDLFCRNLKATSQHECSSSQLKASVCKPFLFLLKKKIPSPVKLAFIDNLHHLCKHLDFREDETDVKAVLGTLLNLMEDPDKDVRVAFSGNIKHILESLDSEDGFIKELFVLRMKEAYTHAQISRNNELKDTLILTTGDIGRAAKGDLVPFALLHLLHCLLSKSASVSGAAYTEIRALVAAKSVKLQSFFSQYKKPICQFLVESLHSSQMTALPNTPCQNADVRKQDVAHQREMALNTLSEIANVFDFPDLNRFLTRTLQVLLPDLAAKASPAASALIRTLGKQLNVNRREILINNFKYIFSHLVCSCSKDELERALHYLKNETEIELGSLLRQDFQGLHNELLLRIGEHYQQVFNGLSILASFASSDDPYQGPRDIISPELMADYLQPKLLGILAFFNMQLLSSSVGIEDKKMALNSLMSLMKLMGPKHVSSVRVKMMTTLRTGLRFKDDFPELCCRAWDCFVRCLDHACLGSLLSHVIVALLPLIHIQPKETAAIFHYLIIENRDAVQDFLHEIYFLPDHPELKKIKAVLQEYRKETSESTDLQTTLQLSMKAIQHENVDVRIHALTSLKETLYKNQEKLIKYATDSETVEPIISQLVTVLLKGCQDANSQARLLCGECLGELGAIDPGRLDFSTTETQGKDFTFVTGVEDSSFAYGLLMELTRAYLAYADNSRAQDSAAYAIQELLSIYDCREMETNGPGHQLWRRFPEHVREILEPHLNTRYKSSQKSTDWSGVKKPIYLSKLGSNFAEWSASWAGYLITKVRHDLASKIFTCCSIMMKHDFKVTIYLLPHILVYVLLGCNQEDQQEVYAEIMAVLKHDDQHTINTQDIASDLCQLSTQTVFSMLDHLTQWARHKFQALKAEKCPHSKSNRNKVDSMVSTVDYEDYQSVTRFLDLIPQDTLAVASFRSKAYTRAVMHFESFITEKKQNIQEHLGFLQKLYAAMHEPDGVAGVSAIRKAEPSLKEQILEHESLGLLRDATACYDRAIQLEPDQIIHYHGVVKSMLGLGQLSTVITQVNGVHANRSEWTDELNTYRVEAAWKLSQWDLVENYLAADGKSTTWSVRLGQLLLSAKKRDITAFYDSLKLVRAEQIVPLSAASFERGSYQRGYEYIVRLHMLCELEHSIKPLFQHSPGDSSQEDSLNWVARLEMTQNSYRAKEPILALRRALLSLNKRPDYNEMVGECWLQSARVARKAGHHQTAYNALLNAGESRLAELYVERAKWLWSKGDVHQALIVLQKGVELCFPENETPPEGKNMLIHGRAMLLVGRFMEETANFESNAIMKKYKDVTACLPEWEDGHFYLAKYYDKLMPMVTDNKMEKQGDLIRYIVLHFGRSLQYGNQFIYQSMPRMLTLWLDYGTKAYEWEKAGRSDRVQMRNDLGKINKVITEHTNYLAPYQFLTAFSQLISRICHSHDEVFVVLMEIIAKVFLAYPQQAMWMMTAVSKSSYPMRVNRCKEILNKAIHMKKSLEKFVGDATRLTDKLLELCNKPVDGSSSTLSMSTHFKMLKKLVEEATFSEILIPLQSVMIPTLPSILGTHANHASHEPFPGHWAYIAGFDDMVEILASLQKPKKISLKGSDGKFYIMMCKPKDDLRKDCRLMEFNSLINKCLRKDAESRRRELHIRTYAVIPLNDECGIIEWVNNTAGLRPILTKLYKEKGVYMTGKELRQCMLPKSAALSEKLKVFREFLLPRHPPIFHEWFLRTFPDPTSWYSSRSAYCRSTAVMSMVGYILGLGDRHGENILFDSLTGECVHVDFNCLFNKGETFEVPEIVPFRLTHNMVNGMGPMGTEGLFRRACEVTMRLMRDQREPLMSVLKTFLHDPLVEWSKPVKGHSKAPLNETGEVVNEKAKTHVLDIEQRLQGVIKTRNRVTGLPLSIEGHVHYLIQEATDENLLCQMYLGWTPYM
T1 sequence (Q8WXE1 whole entry partner): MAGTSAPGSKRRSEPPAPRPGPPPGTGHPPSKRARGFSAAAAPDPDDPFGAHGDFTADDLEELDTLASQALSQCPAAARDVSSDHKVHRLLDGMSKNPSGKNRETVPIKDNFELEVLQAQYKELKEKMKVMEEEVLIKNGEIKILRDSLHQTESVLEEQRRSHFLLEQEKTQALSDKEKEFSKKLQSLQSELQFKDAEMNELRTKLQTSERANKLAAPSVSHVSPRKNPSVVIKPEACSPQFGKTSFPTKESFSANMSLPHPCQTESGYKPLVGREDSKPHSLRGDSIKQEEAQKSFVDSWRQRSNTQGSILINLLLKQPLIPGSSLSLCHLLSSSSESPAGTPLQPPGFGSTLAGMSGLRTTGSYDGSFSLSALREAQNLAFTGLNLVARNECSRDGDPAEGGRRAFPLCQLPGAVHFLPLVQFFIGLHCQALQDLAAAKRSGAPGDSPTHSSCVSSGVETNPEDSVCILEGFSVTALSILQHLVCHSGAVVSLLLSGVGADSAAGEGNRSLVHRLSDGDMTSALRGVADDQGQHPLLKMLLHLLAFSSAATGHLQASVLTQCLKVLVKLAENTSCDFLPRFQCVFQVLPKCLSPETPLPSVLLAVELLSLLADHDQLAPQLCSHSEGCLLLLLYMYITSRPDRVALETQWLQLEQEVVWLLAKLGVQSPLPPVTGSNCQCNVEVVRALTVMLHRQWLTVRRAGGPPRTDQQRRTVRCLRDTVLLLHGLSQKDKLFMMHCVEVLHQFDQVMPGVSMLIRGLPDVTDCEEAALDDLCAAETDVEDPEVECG

IC50 [1] [nM] | IC50 (ATR kinase) [nM] | Structure (SMILES)
309 | 11.8 | Cc1cc(Nc2cc(C(C)(C)C#N)cc(N3CCOC[C@H]3C)n2)[nH]n1 [Compound 25, 2-methyl-2-{2-[(3-methyl-1H-pyrazol-5-yl)amino]-6-[(3R)-3-methylmorpholin-4-yl]pyridin-4-yl}propanenitrile]
517 | 22 | C[C@@H]1COCCN1c1cc(C(C)(C)S(C)(=O)=O)cc(Nc2ccn[nH]2)n1 [Compound 26, (R)-6-(3-methylmorpholino)-4-(2-(methylsulfonyl)propan-2-yl)-N-(1H-pyrazol-5-yl)pyridin-2-amine]
564 | 15.7 | Cc1cc(Nc2cc(C(C)(C)S(C)(=O)=O)cc(N3CCOC[C@H]3C)n2)[nH]n1 [Compound 27, 4-(2-methanesulfonylpropan-2-yl)-N-(3-methyl-1H-pyrazol-5-yl)-6-[(3R)-3-methylmorpholin-4-yl]pyridin-2-amine]
406 | 30.4 | C[C@@H]1COCCN1c1cc(C(C)(C)C#N)nc(Nc2ccn[nH]2)n1 [Compound 28, (R)-2-(2-((1H-pyrazol-5-yl)amino)-6-(3-methylmorpholino)pyrimidin-4-yl)-2-methylpropanenitrile]
718 | 33.3 | Cc1cc(Nc2cc(C3(C#N)CC3)cc(N3CCOC[C@H]3C)n2)[nH]n1 [Compound 35, 1-{2-[(3-methyl-1H-pyrazol-5-yl)amino]-6-[(3R)-3-methylmorpholin-4-yl]pyridin-4-yl}cyclopropane-1-carbonitrile]
492 | 12.3 | C[C@@H]1COCCN1c1cc(C2(C#N)CCCCC2)cc(Nc2ccn[nH]2)n1 [Compound 38, 1-{2-[(3R)-3-methylmorpholin-4-yl]-6-[(1H-pyrazol-5-yl)amino]pyridin-4-yl} cyclohexane-1-carbonitrile]
370 | 2.5 | C[C@@H]1COCCN1c1cc(C2(C#N)CCCCC2)nc(Nc2ccn[nH]2)n1 [Compound 41, (R)-1-(2-((1H-pyrazol-5-yl)amino)-6-(3-methylmorpholino)pyrimidin-4-yl)cyclohexane-1-carbonitrile]
640 | 19.7 | C[C@@H]1COCCN1c1cc(C2(C#N)CCOCC2)nc(Nc2ccn[nH]2)n1 [Compound 42, (R)-4-(2-((1H-pyrazol-5-yl)amino)-6-(3-methylmorpholino)pyrimidin-4-yl) tetrahydro-2H-pyran-4-carbonitrile]
653 | 52.7 | C[C@@H]1COCCN1c1cc(C2(O)CCCCC2)cc(Nc2ccn[nH]2)n1 [Compound 43, (R)-1-(2-((1H-pyrazol-5-yl)amino)-6-(3-methylmorpholino)pyridin-4-yl) cyclohexan-1-ol]
